Assay results reported in US11312721B2 (priority 2015, dated 2022).
pKi: −log10 of the molar value.

How the values were obtained:
GABAA receptors (α5β2γ2) = biological target: T1, GABAA receptors (α5β2γ2) (Homo sapiens, UniProt P18507+P31644); assay: Positive allosteric modulator activity: potentiation of EC20 GABA current in oocytes; type: cell-based; details: read-out: GABA α5 functional potentiation
T1 construct: expressed in transfected cells
Protocol: On day 1, 1 ng/32 nL of GABAA α5β2γ2 cDNA was injected into one oocyte. Test starts on day 2. The cDNA injected to the oocytes was a mix of alpha, beta and gamma, their ratio is 1:1:10 (by weight) and the total weight of the mixed 3 subunits to be injected in one oocyte was 1 ng in 32 nl volume. The injected oocytes can also be tested on day 3. In such case, the cDNA amount injected to the oocytes should be reduced by 20%.
1). 8 oocytes were placed in 8 chambers of OpusXpress and superfused with Modified Barth's Saline (MBS) at 3 mL/min. Glass electrodes back-filled with 3M KCl (0.5-3 megaohms) were used.
1). Repeat the above steps 1), 2) and 3) in the control test.
2). […] Divide Itest by IGABA to obtain potentiation (%).
3). Discard all tested oocytes, new oocytes were used and the above steps 1) and 2) were repeated to test second concentration of the same compound. Each oocyte was used for only one concentration test for a single test compound. The steps were repeated for other test compounds.

[1] = biological target: T2, α5β3γ2 GABAA receptors (Ltk cells) (Homo sapiens, UniProt P18507+P31644); assay: Binding activity on GABAAR: inhibition of [3H]Ro15-1788 binding
T2 construct: membranes
Protocol: Tissue culture and Membrane Preparation: The binding was performed on Ltk cells stably expressing GABAA receptors: α1β1γ2, α2β3γ2, α3β3γ2 and α5β3γ2 (provided by Merck Co., NJ, USA). Cells were seeded in 100 mm culture plates in DMEM/F12 medium containing 10% serum and antibiotics in 5% CO2 and allowed to grow for 1-2 days. GABAAR expression was then induced by dexamethasone as follows: 0.5 μM for 1 day for α5 containing and 2 μM for 3 days for α1, α2 and α3 containing GABAARs. After induction, cells were collected by scraping into Dulbecco's Phosphate buffered saline (DPBS, pH 7.4, Invitrogen, Carlsbad, Calif., USA) and centrifuged at 150×g for 10 min. The pellet was washed twice by re-suspension and centrifugation. The cell pellets from at least 5 different preps were combined, suspended in the binding assay buffer (50 mM KH2PO4; 1 mM EDTA; 0.2 M KCl, pH 7.4) and membranes prepared by sonication (3-5 times, 30 sec) using Branson Sonifier 150 (G. Heinmann, Germany). Protein content was determined using BCA assay (Bio-Rad Labs, Reinach, Switzerland) with Bovine Serum Albumin (Sigma Aldrich, St. Louis, Mo., USA) as the standard. Aliquots were prepared and stored at −20° C. for further use in binding assays.
Ligand Binding: Saturation binding curves were obtained by incubating membranes with increasing concentrations (0.01-8 nM) of [^3H]Ro15-1788 (Flumazepil, 75-85 Ci/mmol, PerkinElmer, MA, USA), with nonspecific binding measured in the presence of 10 μM diazepam.
All binding assays were performed for 1 h at 4° C. in assay buffer. The total assay volume was 0.5 ml containing 0.2 mg/ml protein for α5 and 0.4 mg/ml for α1, α2, and α3 containing GABAAR membranes. Incubations were terminated by filtration through GF/B filters using a 24-Cell Harvestor (Brandel, Gaithersburg, Md., USA) followed by 3 washes with ice-cold assay buffer. Filters were transferred to scintillation vials, 5 ml scintillation liquid added, vortex-mixed and kept in dark. Next day, radioactivity was obtained using a scintillation counter (Beckman Coulter, Brea, Calif., USA). All assays were performed in triplicate.
Data Analyses: Saturation and inhibition curves were obtained using GraphPad Prism software (GraphPad Software, Inc., CA, USA).

T1 sequence (P31644 32-462): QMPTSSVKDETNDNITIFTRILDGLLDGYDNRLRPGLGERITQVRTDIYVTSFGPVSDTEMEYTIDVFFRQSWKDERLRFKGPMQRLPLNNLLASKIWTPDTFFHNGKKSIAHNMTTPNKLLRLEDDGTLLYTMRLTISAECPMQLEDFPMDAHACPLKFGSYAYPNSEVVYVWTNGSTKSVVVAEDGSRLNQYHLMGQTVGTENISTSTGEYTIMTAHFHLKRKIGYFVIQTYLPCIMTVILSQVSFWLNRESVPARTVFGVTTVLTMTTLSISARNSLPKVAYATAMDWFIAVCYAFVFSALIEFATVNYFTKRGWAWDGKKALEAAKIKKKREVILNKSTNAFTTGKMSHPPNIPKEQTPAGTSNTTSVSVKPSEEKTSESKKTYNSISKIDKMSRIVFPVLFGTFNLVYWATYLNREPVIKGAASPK
T1 sequence (P47870 25-512 partner limits assumed): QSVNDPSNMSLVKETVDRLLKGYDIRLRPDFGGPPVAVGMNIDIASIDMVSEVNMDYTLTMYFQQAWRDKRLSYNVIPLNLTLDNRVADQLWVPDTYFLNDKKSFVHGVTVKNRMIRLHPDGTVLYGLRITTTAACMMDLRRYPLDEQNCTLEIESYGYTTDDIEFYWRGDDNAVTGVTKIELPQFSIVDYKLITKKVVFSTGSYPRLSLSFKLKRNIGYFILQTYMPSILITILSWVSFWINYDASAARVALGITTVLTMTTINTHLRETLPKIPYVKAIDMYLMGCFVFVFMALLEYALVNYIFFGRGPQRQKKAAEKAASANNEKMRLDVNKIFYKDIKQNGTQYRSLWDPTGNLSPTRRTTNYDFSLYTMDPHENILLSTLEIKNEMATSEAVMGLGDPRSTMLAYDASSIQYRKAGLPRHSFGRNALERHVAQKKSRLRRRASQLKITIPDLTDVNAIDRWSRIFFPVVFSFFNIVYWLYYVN
T1 sequence (P18507 40-475): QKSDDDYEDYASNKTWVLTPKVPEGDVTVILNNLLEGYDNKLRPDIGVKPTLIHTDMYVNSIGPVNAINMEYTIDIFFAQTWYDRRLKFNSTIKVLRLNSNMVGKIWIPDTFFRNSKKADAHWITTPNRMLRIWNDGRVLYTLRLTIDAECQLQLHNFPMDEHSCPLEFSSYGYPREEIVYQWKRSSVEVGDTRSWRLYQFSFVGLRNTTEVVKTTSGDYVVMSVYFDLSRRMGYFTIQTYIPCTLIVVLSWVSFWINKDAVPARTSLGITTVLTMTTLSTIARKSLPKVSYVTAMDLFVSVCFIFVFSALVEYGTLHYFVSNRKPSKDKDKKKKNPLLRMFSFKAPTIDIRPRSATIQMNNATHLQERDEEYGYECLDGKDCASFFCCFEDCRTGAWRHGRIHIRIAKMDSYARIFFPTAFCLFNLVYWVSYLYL
T2 sequence (P31644 32-462): as the sequence (P31644 32-462) above
T2 sequence (P28472 26-473 partner): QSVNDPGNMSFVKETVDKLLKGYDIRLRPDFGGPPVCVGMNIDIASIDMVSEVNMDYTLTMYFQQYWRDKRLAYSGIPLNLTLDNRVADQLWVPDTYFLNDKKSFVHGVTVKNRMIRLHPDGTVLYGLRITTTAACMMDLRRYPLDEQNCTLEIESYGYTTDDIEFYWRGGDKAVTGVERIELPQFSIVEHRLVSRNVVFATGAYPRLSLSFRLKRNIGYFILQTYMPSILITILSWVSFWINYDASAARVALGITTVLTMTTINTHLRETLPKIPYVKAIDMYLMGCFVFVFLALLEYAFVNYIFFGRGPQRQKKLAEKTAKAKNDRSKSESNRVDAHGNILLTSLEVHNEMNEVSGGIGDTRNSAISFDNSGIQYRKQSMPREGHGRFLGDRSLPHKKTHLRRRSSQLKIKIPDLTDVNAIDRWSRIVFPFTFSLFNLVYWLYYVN
T2 sequence (P18507 40-475): as the sequence (P18507 40-475) above

Cc1nnn2c1Cc1c(-c3nc(C(C)C)no3)ncn1-c1ccccc1-2 [Compound 132]
activation at 0.1 µM (GABAA receptors (α5β2γ2)): 20 to 49%

CCOC(=O)c1ncn2c1Cn1c(COc3ccccc3)nnc1-c1cc(F)ccc1-2 [Compound 137]
activation at 0.1 µM (GABAA receptors (α5β2γ2)): 20 to 49%

Cc1nc(-c2ncn3c2Cc2c(C)nnn2-c2cc(F)ccc2-3)no1 [Compound 145]
activation at 0.1 µM (GABAA receptors (α5β2γ2)): > 50%

CC(C)c1nc(-c2ncn3c2Cn2c(COc4ccccc4)nnc2-c2cc(F)ccc2-3)no1 [Compound 147]
activation at 0.1 µM (GABAA receptors (α5β2γ2)): 20 to 49%

Cc1nc(-c2ncn3c2Cn2c(COc4ccccc4)nnc2-c2cc(F)ccc2-3)no1 [Compound 148]
activation at 0.1 µM (GABAA receptors (α5β2γ2)): 20 to 49%

Cc1nnn2c1Cc1c(-c3noc(C(C)C)n3)ncn1-c1ccc(F)cc1-2 [Compound 149]
activation at 0.1 µM (GABAA receptors (α5β2γ2)): > 50%

Cc1nnn2c1Cc1c(C(=O)OC(C)C)ncn1-c1ccccc1-2 [Compound 153]
activation at 0.1 µM (GABAA receptors (α5β2γ2)): 20 to 49%

CCc1nc(-c2ncn3c2Cc2c(C)nnn2-c2cc(F)ccc2-3)no1 [Compound 155]
activation at 0.1 µM (GABAA receptors (α5β2γ2)): 20 to 49%

CCc1nc(-c2ncn3c2Cn2c(COc4ccccc4)nnc2-c2cc(F)ccc2-3)no1 [Compound 158]
activation at 0.1 µM (GABAA receptors (α5β2γ2)): 20 to 49%

Cc1nnn2c1Cc1c(-c3noc(C(C)(C)C)n3)ncn1-c1ccc(F)cc1-2 [Compound 160]
activation at 0.1 µM (GABAA receptors (α5β2γ2)): > 50%

COc1ccc2c(c1)-c1nnc(COc3ccccc3)n1Cc1c(-c3noc(C)n3)ncn1-2 [Compound 162]
activation at 0.1 µM (GABAA receptors (α5β2γ2)): 20 to 49%

COc1ccc2c(c1)-c1nnc(COc3ccc(F)cc3)n1Cc1c(-c3noc(C)n3)ncn1-2 [Compound 163]
activation at 0.1 µM (GABAA receptors (α5β2γ2)): 20 to 49%

COc1ccc2c(c1)-c1nnc(COc3ccccc3)n1Cc1c(-c3noc(C(C)C)n3)ncn1-2 [Compound 171]
activation at 0.1 µM (GABAA receptors (α5β2γ2)): > 50%

COc1ccc2c(c1)-c1nnc(COc3ccc(F)cc3)n1Cc1c(-c3noc(C(C)C)n3)ncn1-2 [Compound 172]
activation at 0.1 µM (GABAA receptors (α5β2γ2)): > 50%

CCOCc1nnc2n1Cc1c(-c3noc(C(C)C)n3)ncn1-c1ccc(OC)cc1-2 [Compound 173]
activation at 0.1 µM (GABAA receptors (α5β2γ2)): > 50%

COc1ccc2c(c1)-c1nnc(COc3ccccc3F)n1Cc1c(-c3noc(C(C)C)n3)ncn1-2 [Compound 174]
activation at 0.1 µM (GABAA receptors (α5β2γ2)): > 50%

COc1ccc2c(c1)-c1nnc(COc3ccccc3Cl)n1Cc1c(-c3noc(C(C)C)n3)ncn1-2 [Compound 175]
activation at 0.1 µM (GABAA receptors (α5β2γ2)): 20 to 49%

COc1ccc2c(c1)-c1nnc(COc3cccnc3)n1Cc1c(-c3noc(C(C)C)n3)ncn1-2 [Compound 176]
activation at 0.1 µM (GABAA receptors (α5β2γ2)): > 50%

COc1ccc2c(c1)-c1nnc(COc3cccc4ccccc34)n1Cc1c(-c3noc(C(C)C)n3)ncn1-2 [Compound 177]
activation at 0.1 µM (GABAA receptors (α5β2γ2)): > 50%

COc1ccc2c(c1)-c1nnc(COC3CCCC3)n1Cc1c(-c3noc(C(C)C)n3)ncn1-2 [Compound 178]
activation at 0.1 µM (GABAA receptors (α5β2γ2)): > 50%

COc1ccc2c(c1)-c1nnc(COc3cccc(F)c3)n1Cc1c(-c3noc(C(C)C)n3)ncn1-2 [Compound 179]
activation at 0.1 µM (GABAA receptors (α5β2γ2)): > 50%

COc1ccc2c(c1)-n1nnc(COc3ccc(F)cc3)c1Cc1c(-c3noc(C)n3)ncn1-2 [Compound 180]
pKi [1]: > 7.00 | activation at 0.1 µM (GABAA receptors (α5β2γ2)): 20 to 49%

COc1ccc2c(c1)-n1nnc(COc3ccccc3F)c1Cc1c(-c3noc(C)n3)ncn1-2 [Compound 181]
pKi [1]: > 7.00 | activation at 0.1 µM (GABAA receptors (α5β2γ2)): 20 to 49%

COc1ccc2c(c1)-n1nnc(COc3ccccc3)c1Cc1c(-c3noc(C)n3)ncn1-2 [Compound 182]
pKi [1]: > 7.00 | activation at 0.1 µM (GABAA receptors (α5β2γ2)): 20 to 49%

COc1ccc2c(c1)-c1nnc(COCc3cccc(F)c3)n1Cc1c(-c3noc(C(C)C)n3)ncn1-2 [Compound 183]
pKi [1]: > 7.00 | activation at 0.1 µM (GABAA receptors (α5β2γ2)): 20 to 49%

COc1ccc2c(c1)-c1nnc(COCc3ccccc3F)n1Cc1c(-c3noc(C(C)C)n3)ncn1-2 [Compound 184]
pKi [1]: > 7.00 | activation at 0.1 µM (GABAA receptors (α5β2γ2)): 20 to 49%

CC(C)c1nc(-c2ncn3c2Cn2c(COc4cccnc4)nnc2-c2cc(F)ccc2-3)no1 [Compound 185]
pKi [1]: > 7.00 | activation at 0.1 µM (GABAA receptors (α5β2γ2)): > 50%

COCc1nnc2n1Cc1c(-c3noc(C(C)C)n3)ncn1-c1ccc(F)cc1-2 [Compound 186]
pKi [1]: > 7.00 | activation at 0.1 µM (GABAA receptors (α5β2γ2)): > 50%

CCOCc1nnc2n1Cc1c(-c3noc(C(C)C)n3)ncn1-c1ccc(F)cc1-2 [Compound 187]
pKi [1]: > 7.00 | activation at 0.1 µM (GABAA receptors (α5β2γ2)): 20 to 49%

CC(C)c1nc(-c2ncn3c2Cn2c(COc4cccc(F)c4)nnc2-c2cc(F)ccc2-3)no1 [Compound 188]
pKi [1]: > 7.00 | activation at 0.1 µM (GABAA receptors (α5β2γ2)): 20 to 49%

CC(C)c1nc(-c2ncn3c2Cn2c(COc4ccc(F)cc4)nnc2-c2cc(F)ccc2-3)no1 [Compound 189]
pKi [1]: > 7.00 | activation at 0.1 µM (GABAA receptors (α5β2γ2)): 20 to 49%

COc1ccc2c(c1)-c1nnc(COc3ccc(F)cc3)n1Cc1c(C#N)ncn1-2 [Compound 191]
activation at 0.1 µM (GABAA receptors (α5β2γ2)): 20 to 49%

CCc1nc(-c2ncn3c2Cc2c(Cc4ccccc4)nnn2-c2cc(OC)ccc2-3)no1 [Compound 194]
pKi [1]: > 7.00 | activation at 0.1 µM (GABAA receptors (α5β2γ2)): > 50%

CCc1nc(-c2ncn3c2Cc2c(Cc4ccc(F)cc4)nnn2-c2cc(OC)ccc2-3)no1 [Compound 195]
pKi [1]: > 7.00 | activation at 0.1 µM (GABAA receptors (α5β2γ2)): 20 to 49%

COc1ccc2c(c1)-c1nnc(COc3cccc(F)c3)n1Cc1c(C#N)ncn1-2 [Compound 196]
pKi [1]: > 7.00 | activation at 0.1 µM (GABAA receptors (α5β2γ2)): 20 to 49%

COCc1nnc2n1Cc1c(-c3nc(C)no3)ncn1-c1ccc(Cl)cc1-2 [Compound 198]
pKi [1]: > 7.00 | activation at 0.1 µM (GABAA receptors (α5β2γ2)): 20 to 49%

FC(F)=Cc1ncn2c1Cn1c(COc3ccccc3)nnc1-c1cc(Cl)ccc1-2 [Compound 199]
pKi [1]: > 7.00 | activation at 0.1 µM (GABAA receptors (α5β2γ2)): 20 to 49%

Clc1ccc2c(c1)-c1nnc(COc3ccccc3)n1Cc1c(Br)ncn1-2 [Compound 202]
pKi [1]: > 7.00 | activation at 0.1 µM (GABAA receptors (α5β2γ2)): 20 to 49%

COc1ccc2c(c1)-c1nnc(COCc3cccnc3)n1Cc1c(-c3noc(C(C)C)n3)ncn1-2 [Compound 203]
pKi [1]: > 7.00 | activation at 0.1 µM (GABAA receptors (α5β2γ2)): 20 to 49%

C#Cc1ncn2c1Cn1c(COc3ccccc3)nnc1-c1cc(Cl)ccc1-2 [Compound 205]
pKi [1]: > 7.00 | activation at 0.1 µM (GABAA receptors (α5β2γ2)): 20 to 49%

COc1ccc2c(c1)-n1nnc(Cc3ccccc3)c1Cc1c(C#N)ncn1-2 [Compound 207]
pKi [1]: > 7.00 | activation at 0.1 µM (GABAA receptors (α5β2γ2)): 20 to 49%

COc1ccc2c(c1)-n1nnc(Cc3cccnc3)c1Cc1c(C#N)ncn1-2 [Compound 210]
pKi [1]: > 7.00 | activation at 0.1 µM (GABAA receptors (α5β2γ2)): 20 to 49%

COc1ccc2c(c1)-n1nnc(Cc3ccccc3)c1Cc1c(Br)ncn1-2 [Compound 212]
activation at 0.1 µM (GABAA receptors (α5β2γ2)): 20 to 49%

COc1ccc2c(c1)-n1nnc(Cc3ccc(F)cc3)c1Cc1c(Br)ncn1-2 [Compound 213]
activation at 0.1 µM (GABAA receptors (α5β2γ2)): 20 to 49%

COc1ccc2c(c1)-n1nnc(COc3ccc(F)cc3)c1Cc1c(C#N)ncn1-2 [Compound 222]
pKi [1]: > 7.00 | activation at 0.1 µM (GABAA receptors (α5β2γ2)): 20 to 49%

COc1ccc2c(c1)-n1nnc(COc3ccccc3)c1Cc1c(C#N)ncn1-2 [Compound 224]
pKi [1]: > 7.00 | activation at 0.1 µM (GABAA receptors (α5β2γ2)): 20 to 49%

COc1ccc2c(c1)-n1nnc(COc3cccc(Br)c3)c1Cc1c(C#N)ncn1-2 [Compound 225]
pKi [1]: > 7.00 | activation at 0.1 µM (GABAA receptors (α5β2γ2)): 20 to 49%

N#Cc1ncn2c1Cc1c(COc3ccccc3)nnn1-c1cc(Cl)ccc1-2 [Compound 226]
pKi [1]: > 7.00 | activation at 0.1 µM (GABAA receptors (α5β2γ2)): 20 to 49%

COCc1nnc2n1Cc1c(C3=NCCO3)ncn1-c1ccc(Cl)cc1-2 [Compound 238]
pKi [1]: > 7.00 | activation at 0.1 µM (GABAA receptors (α5β2γ2)): 20 to 49%

COCc1nnc2n1Cc1c(C3=NC(C)CO3)ncn1-c1ccc(Cl)cc1-2 (stereo not shown) [Compound 243]
pKi [1]: > 7.00 | activation at 0.1 µM (GABAA receptors (α5β2γ2)): 20 to 49%

COCc1nnc2n1Cc1c(-c3ncco3)ncn1-c1ccc(Cl)cc1-2 [Compound 249]
pKi [1]: > 7.00 | activation at 0.1 µM (GABAA receptors (α5β2γ2)): 20 to 49%

CCOCc1nnc2n1Cc1c(-c3nc(C(C)C)no3)ncn1-c1ccc(Cl)cc1-2 [Compound 254]
pKi [1]: > 7.00 | activation at 0.1 µM (GABAA receptors (α5β2γ2)): 20 to 49%

CCOCc1nnc2n1Cc1c(-c3nc(C)no3)ncn1-c1ccc(Cl)cc1-2 [Compound 255]
pKi [1]: > 7.00 | activation at 0.1 µM (GABAA receptors (α5β2γ2)): 20 to 49%
